These results are taken from ChEMBL document CHEMBL1137864, “End-capping of the modified melanocortin tetrapeptide (p-Cl)Phe-D-Phe-Arg-Trp-NH2 as a route to hMC4R agonists” (Bioorg Med Chem Lett, 2004).

One may read the EC50 as the concentration giving half of the maximal effect. Read a low EC50 as a more potent agent.

Assay [1] concerns the target Melanocortin receptor (M1 and M4) (Homo sapiens) (UniProt P32245+Q01726). Kind of assay: Ratio of EC50 of Melanocortin 4 receptor to that of Melanocortin 1 receptor. Type of assay: protein assay.
Assay [2] addresses Melanocyte-stimulating hormone receptor (Homo sapiens, UniProt Q01726). Kind of assay: Agonistic activity against human Melanocortin 1 receptor. Type of assay: functional.
The next assay deals with Melanocortin receptor 4 (Homo sapiens, UniProt P32245). Kind of assay: Agonistic activity against human Melanocortin 4 receptor. The class given is functional.
Assay [3] has as its target Melanocortin receptor (M3 and M4) (Homo sapiens) (UniProt P32245+P41968). Kind of assay: Ratio of EC50 of Melanocortin 4 receptor to that of Melanocortin 3 receptor. Type of assay: protein assay.
A further assay addresses Melanocortin receptor 3 (Homo sapiens, UniProt P41968). The assay can be described thus: Agonistic activity against human Melanocortin 3 receptor. Type of assay: functional.

Chain of Melanocortin receptor 3 (P41968 whole entry): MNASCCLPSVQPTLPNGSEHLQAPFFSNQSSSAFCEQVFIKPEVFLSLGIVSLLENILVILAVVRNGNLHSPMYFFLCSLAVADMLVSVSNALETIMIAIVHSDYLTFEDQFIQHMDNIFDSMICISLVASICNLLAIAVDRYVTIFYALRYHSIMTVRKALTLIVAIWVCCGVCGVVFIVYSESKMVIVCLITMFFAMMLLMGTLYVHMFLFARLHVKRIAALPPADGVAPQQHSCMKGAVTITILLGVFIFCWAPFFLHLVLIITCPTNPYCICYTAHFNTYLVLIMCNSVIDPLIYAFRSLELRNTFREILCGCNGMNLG
Chain of Melanocortin receptor 4 (P32245 whole entry): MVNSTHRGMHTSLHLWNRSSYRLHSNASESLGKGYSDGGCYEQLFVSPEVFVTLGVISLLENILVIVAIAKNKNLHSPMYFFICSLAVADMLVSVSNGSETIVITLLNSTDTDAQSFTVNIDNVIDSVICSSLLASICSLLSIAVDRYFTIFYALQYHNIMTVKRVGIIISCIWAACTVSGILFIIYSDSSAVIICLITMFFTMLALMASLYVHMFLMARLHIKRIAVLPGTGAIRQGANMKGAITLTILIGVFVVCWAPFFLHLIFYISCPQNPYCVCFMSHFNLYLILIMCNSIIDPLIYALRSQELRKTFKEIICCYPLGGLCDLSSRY
Chain of Melanocyte-stimulating hormone receptor (Q01726 whole entry): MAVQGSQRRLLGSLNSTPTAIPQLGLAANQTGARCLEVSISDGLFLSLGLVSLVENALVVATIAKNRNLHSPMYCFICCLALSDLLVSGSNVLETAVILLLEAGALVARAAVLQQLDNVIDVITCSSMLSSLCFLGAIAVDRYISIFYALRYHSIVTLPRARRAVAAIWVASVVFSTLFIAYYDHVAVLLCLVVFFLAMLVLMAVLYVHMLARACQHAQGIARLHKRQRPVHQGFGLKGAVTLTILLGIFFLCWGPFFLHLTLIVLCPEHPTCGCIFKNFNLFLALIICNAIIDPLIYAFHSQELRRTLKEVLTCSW

On to `CNC(=O)N[C@@H](Cc1ccc(Cl)cc1)C(=O)NC(Cc1ccccc1)C(=O)N[C@@H](CCCN=C(N)N)C(=O)N[C@@H](Cc1c[nH]c2ccccc12)C(N)=O` (stereo in doubt), for which the Ratio in assay [1] is 100; in assay [3], 10. Also, the figures for the EC50 (in assay [2]; at Melanocortin receptor 4; at Melanocortin receptor 3) were 848 nM, 8.5 nM and 86.5 nM, respectively.

Consider `N=C(N)NCCC[C@H](NC(=O)C(Cc1ccccc1)NC(=O)[C@H](Cc1ccc(Cl)cc1)NC(=O)c1ccccc1)C(=O)N[C@@H](Cc1c[nH]c2ccccc12)C(N)=O` (stereo in doubt), for which the Ratio came out at 5 in assay [1] and 4 in assay [3]. In addition, the figures for the EC50 (in assay [2]; on Melanocortin receptor 4; at Melanocortin receptor 3) were 700 nM, 135 nM and 556 nM, respectively.

Turning to `CC(=O)N[C@@H](Cc1ccc(Cl)cc1)C(=O)NC(Cc1ccccc1)C(=O)N[C@@H](CCCN=C(N)N)C(=O)N[C@@H](Cc1c[nH]c2ccccc12)C(N)=O` (stereo in doubt), the results for the Ratio in assay [1] and in assay [3] were 10 and 6, respectively. For the same compound, the EC50 in assay [2] was 867 nM; on Melanocortin receptor 4 it was 88.5 nM; at Melanocortin receptor 3, 553 nM.

Regarding `CC(=O)N[C@@H](Cc1c[nH]cn1)C(=O)NC(Cc1ccccc1)C(=O)NC(Cc1ccccc1)C(=O)N[C@@H](CCCN=C(N)N)C(=O)N[C@@H](Cc1c[nH]c2ccccc12)C(N)=O` (stereo in doubt), the figures for the Ratio in assay [1] and in assay [3] were 0.1 and 0.7, respectively. In addition, the EC50 in assay [2] amounted to 13 nM; at Melanocortin receptor 4, 59.5 nM; on Melanocortin receptor 3, 170 nM.

As to `N=C(N)NCCC[C@H](NC(=O)C(Cc1ccccc1)NC(=O)[C@H](Cc1ccc(Cl)cc1)NC(=O)c1ccncc1)C(=O)N[C@@H](Cc1c[nH]c2ccccc12)C(N)=O` (stereo in doubt), the figures for the Ratio in assay [1] and in assay [3] were 18 and 33, respectively. Besides, the EC50 in assay [2] amounted to 541 nM; on Melanocortin receptor 4, 30 nM; on Melanocortin receptor 3 it was 992 nM.

For `C=CCNC(=O)N[C@@H](Cc1ccc(Cl)cc1)C(=O)NC(Cc1ccccc1)C(=O)N[C@@H](CCCNC(=N)N)C(=O)N[C@@H](Cc1c[nH]c2ccccc12)C(N)=O` (stereo in doubt), the values for the Ratio in assay [1] and in assay [3] were 42 and 4, respectively. Also, the results for the EC50 (in assay [2]; on Melanocortin receptor 4; on Melanocortin receptor 3) were 505 nM, 12 nM and 45 nM, respectively.

Consider `N=C(N)NCCC[C@H](NC(=O)C(Cc1ccccc1)NC(=O)[C@H](Cc1ccc(Cl)cc1)NC(=O)CCc1ccccc1)C(=O)N[C@@H](Cc1c[nH]c2ccccc12)C(N)=O` (stereo in doubt), for which the Ratio was 4 in assay [1] and 1 in assay [3]. Also, the EC50 was found to be 442 nM in assay [2], 121 nM on Melanocortin receptor 4 and 170 nM at Melanocortin receptor 3.

Consider `CCOC(=O)N[C@@H](Cc1ccc(Cl)cc1)C(=O)NC(Cc1ccccc1)C(=O)N[C@@H](CCCN=C(N)N)C(=O)N[C@@H](Cc1c[nH]c2ccccc12)C(N)=O` (stereo in doubt), for which the Ratio in assay [1] was 6; in assay [3], 88. For the same compound, the EC50 in assay [2] is 211 nM; on Melanocortin receptor 4, 35 nM; on Melanocortin receptor 3 it was 3080 nM.

For the compound `N#CCC(=O)N[C@@H](Cc1ccc(Cl)cc1)C(=O)NC(Cc1ccccc1)C(=O)N[C@@H](CCCNC(=N)N)C(=O)N[C@@H](Cc1c[nH]c2ccccc12)C(N)=O` (stereo in doubt), the Ratio in assay [1] amounted to 54; in assay [3], 290. Further, the EC50 in assay [2] was 567 nM; on Melanocortin receptor 4, 10.5 nM; at Melanocortin receptor 3, 3040 nM.

Turning to `N=C(N)NCCC[C@H](NC(=O)C(Cc1ccccc1)NC(=O)[C@H](Cc1ccc(Cl)cc1)NC(=O)CC(N)=O)C(=O)N[C@@H](Cc1c[nH]c2ccccc12)C(N)=O` (stereo in doubt), the Ratio is 41 in assay [1] and 70 in assay [3]. Also, the EC50 in assay [2] amounted to 597 nM; at Melanocortin receptor 4, 14.5 nM; on Melanocortin receptor 3, 1010 nM.

On to `N=C(N)NCCC[C@H](NC(=O)C(Cc1ccccc1)NC(=O)[C@H](Cc1ccc(Cl)cc1)NC(=O)CC(F)(F)F)C(=O)N[C@@H](Cc1c[nH]c2ccccc12)C(N)=O` (stereo in doubt), for which the Ratio in assay [1] is 8. The concentration for a half-maximal effect (EC50) amounted to 1210 nM in assay [2], 150 nM at Melanocortin receptor 4 and 886 nM on Melanocortin receptor 3.

For the compound `N=C(N)NCCC[C@H](NC(=O)C(Cc1ccccc1)NC(=O)[C@H](Cc1ccc(Cl)cc1)NC(=O)Cc1ccccc1)C(=O)N[C@@H](Cc1c[nH]c2ccccc12)C(N)=O` (stereo in doubt), the Ratio in assay [1] amounted to 35; in assay [3] it was 2. The EC50 in assay [2] was found to be 699 nM; on Melanocortin receptor 4 it was 20 nM; on Melanocortin receptor 3, 43 nM.

Regarding `N=C(N)NCCC[C@H](NC(=O)C(Cc1ccccc1)NC(=O)C(Cc1ccccc1)NC(=O)[C@H](Cc1c[nH]cn1)NC(=O)CCCC(=O)c1ccccc1)C(=O)N[C@@H](Cc1c[nH]c2ccccc12)C(N)=O` (stereo in doubt), the Ratio in assay [1] turned out to be 0.01. Also, the EC50 in assay [2] came out at 0.05 nM; on Melanocortin receptor 4, 5 nM; at Melanocortin receptor 3, 3 nM.

`N=C(N)NCCC[C@H](NC(=O)C(Cc1ccccc1)NC(=O)[C@H](Cc1ccc(Cl)cc1)NC(=O)c1cccnc1)C(=O)N[C@@H](Cc1c[nH]c2ccccc12)C(N)=O` (stereo in doubt): the Ratio was 28 in assay [1] and 15 in assay [3]. Moreover, the EC50 in assay [2] is 577 nM; on Melanocortin receptor 4, 21 nM; on Melanocortin receptor 3, 313 nM.

Turning to `CN(C)C(=O)N[C@@H](Cc1ccc(Cl)cc1)C(=O)NC(Cc1ccccc1)C(=O)N[C@@H](CCCN=C(N)N)C(=O)N[C@@H](Cc1c[nH]c2ccccc12)C(N)=O` (stereo in doubt), the Ratio came to 51 in assay [1] and 4 in assay [3]. Moreover, the EC50 turned out to be 2160 nM in assay [2], 42 nM on Melanocortin receptor 4 and 175 nM on Melanocortin receptor 3.

In the case of `N=C(N)NCCC[C@H](NC(=O)C(Cc1ccccc1)NC(=O)[C@H](Cc1ccc(Cl)cc1)NC(=O)CCCc1ccccc1)C(=O)N[C@@H](Cc1c[nH]c2ccccc12)C(N)=O` (stereo in doubt), the Ratio in assay [1] was found to be 1; in assay [3] it was 3. In addition, the EC50 in assay [2] was 113 nM; at Melanocortin receptor 4 it was 82 nM; on Melanocortin receptor 3, 207 nM.

For `N=C(N)NCCC[C@H](NC(=O)C(Cc1ccccc1)NC(=O)[C@H](Cc1ccc(Cl)cc1)NC(=O)c1cccs1)C(=O)N[C@@H](Cc1c[nH]c2ccccc12)C(N)=O` (stereo in doubt), the Ratio in assay [1] was 48; in assay [3], 34. Besides, the EC50 stood at 892 nM in assay [2], 18.7 nM at Melanocortin receptor 4 and 644 nM on Melanocortin receptor 3.

As for `N=C(N)NCCC[C@H](NC(=O)C(Cc1ccccc1)NC(=O)[C@H](Cc1ccc(Cl)cc1)NC(=O)c1ccsc1)C(=O)N[C@@H](Cc1c[nH]c2ccccc12)C(N)=O` (stereo in doubt), the Ratio in assay [1] and in assay [3] was 25 throughout. Further, the EC50 in assay [2] was 671 nM; on Melanocortin receptor 4 it was 27 nM; at Melanocortin receptor 3, 674 nM.

With `N=C(N)NCCC[C@H](NC(=O)C(Cc1ccccc1)NC(=O)[C@H](Cc1ccc(Cl)cc1)NC(=O)c1ccccn1)C(=O)N[C@@H](Cc1c[nH]c2ccccc12)C(N)=O` (stereo in doubt), the values for the Ratio in assay [1] and in assay [3] were 30 and 14, respectively. The figures for the EC50 (in assay [2]; at Melanocortin receptor 4; at Melanocortin receptor 3) were 947 nM, 31.3 nM and 452 nM, respectively.

Regarding `N=C(N)NCCC[C@H](NC(=O)C(Cc1ccccc1)NC(=O)[C@H](Cc1ccc(Cl)cc1)NC(=O)CCCC(=O)c1ccccc1)C(=O)N[C@@H](Cc1c[nH]c2ccccc12)C(N)=O` (stereo in doubt), the Ratio in assay [1] amounted to 0.4; in assay [3], 0.7. In addition, the EC50 turned out to be 23 nM in assay [2], 58 nM at Melanocortin receptor 4 and 41 nM at Melanocortin receptor 3.

Regarding `N=C(N)NCCC[C@H](NC(=O)C(Cc1ccccc1)NC(=O)[C@H](Cc1ccc(Cl)cc1)NC(=O)CCCCc1ccccc1)C(=O)N[C@@H](Cc1c[nH]c2ccccc12)C(N)=O` (stereo in doubt), the Ratio came to 3 in assay [1] and 1 in assay [3]. Moreover, the EC50 in assay [2] was found to be 144 nM; at Melanocortin receptor 4 it was 45 nM; on Melanocortin receptor 3, 34.5 nM.

`N=C(N)NCCC[C@H](NC(=O)C(Cc1ccccc1)NC(=O)[C@H](Cc1ccc(Cl)cc1)NC(=O)c1c(F)c(F)c(F)c(F)c1F)C(=O)N[C@@H](Cc1c[nH]c2ccccc12)C(N)=O` (stereo in doubt): the Ratio in assay [1] stood at 3; in assay [3], 8. Also, the half-maximal effective concentration (EC50) in assay [2] is 555 nM; at Melanocortin receptor 4, 168 nM; on Melanocortin receptor 3, 1340 nM.

Take `N=C(N)NCCC[C@H](NC(=O)C(Cc1ccccc1)NC(=O)[C@H](Cc1ccc(Cl)cc1)NC(=O)CO)C(=O)N[C@@H](Cc1c[nH]c2ccccc12)C(N)=O` (stereo in doubt): the Ratio was 4 in assay [1] and 13 in assay [3]. The EC50 is 499 nM in assay [2], 114 nM at Melanocortin receptor 4 and 1450 nM at Melanocortin receptor 3.

On to `N=C(N)NCCC[C@H](NC(=O)C(Cc1ccccc1)NC(=O)[C@H](Cc1ccc(Cl)cc1)NC(=O)CNC=O)C(=O)N[C@@H](Cc1c[nH]c2ccccc12)C(N)=O` (stereo in doubt), for which the figures for the Ratio in assay [1] and in assay [3] were 43 and 54, respectively. The EC50 came out at 600 nM in assay [2], 14.1 nM on Melanocortin receptor 4 and 757 nM at Melanocortin receptor 3.

Consider `N=C(N)NCCC[C@H](NC(=O)C(Cc1ccccc1)NC(=O)[C@H](Cc1ccc(Cl)cc1)NC(=O)C(N)=O)C(=O)N[C@@H](Cc1c[nH]c2ccccc12)C(N)=O` (stereo in doubt), for which the Ratio in assay [1] came to 11; in assay [3] it was 5. For the same compound, the EC50 in assay [2] turned out to be 349 nM; on Melanocortin receptor 4 it was 31.3 nM; on Melanocortin receptor 3, 164 nM.
